According to patent US10695319B2, “Glucose conjugates of triptolide, analogs and uses thereof” (The Johns Hopkins University, priority 2016, dated 2020):

Columns and labels:
[1] = Preliminary experiments on tolerable treatment dose; assay type: in vivo; details: mice
Experimental: (§1) The in vivo antitumor activity of the glucose-triptolide conjugate G4 was determined using an established metastatic prostate cancer model (Reference 1). In this model, the luciferase-expressing prostate cancer line PC3/ML was injected into NOD/SCID/IL2rγ^null (NSG) mice through the tail vein. The metastasis of the injected prostate cancer cells into liver, kidney, lung and bone can be monitored in live animals by bioluminescent imaging (BLI). It was shown that this is a reliable model with reproducible liver metastasis and all animals succumb by Week 7 after injection of cells (or Week 4 after initiation of treatments). […] Three weeks after cell injection, each compound was given once daily by IP at those doses for a total of 4 weeks. The surviving animals were continuously monitored upon termination of compound administration.

[2] = tested on: luciferase-expressing prostate cancer line PC3/ML; assay: Metastatic prostate cancer model, bioluminescent imaging; assay type: in vivo, NOD/SCID/IL2rγ^null (NSG) mice; details: triptolide 0.2 mg/kg, G4 1 mg/kg
Experimental: FIG. 3. Effects of triptolide and glucose-triptolide conjugate G4 in a metastatic mouse prostate cancer model. The injected prostate cancer cells expressed luciferase, which was detected by imaging of live animals.
as §1

Structure (SMILES): CC(C)[C@]12O[C@H]1[C@@H]1O[C@]13[C@]1(O[C@H]1C[C@H]1C4=C(CC[C@@]13C)C(=O)OC4)[C@@H]2O [triptolide]
- tolerable treatment dose [1]: 0.2 mg/kg
- tumor after termination of compound administration ([2]; after 4 weeks of once daily IP, till end of experiment): tumors immediately returned
- tumor cells at the end of Week 4 of treatment ([2]; once daily IP for 4 weeks, BLI): undetectable tumor cells
